# Test results taken from patent EP0451772A1, “Piperidine compounds, method for preparation thereof, and a pharamceutical composition comprising the same” (HOKURIKU PHARMACEUTICAL CO., LTD., priority 1990, dated 1991).
# Where a name gives a salt, the structure may show the parent alone. Read-outs that look alike come from different tables or passages of the source.
# Experiments:
# [1] = system: passive cutaneous anaphylaxis (PCA) in rats; assay: 48 hr homologous passive cutaneous anaphylaxis (PCA) in rats; format: in vivo, Male Wistar rats; details: Rattus norvegicus, po, read-out: the percent inhibition of PCA in rats
# Description: (§1) The results of 48 hr homologous passive cutaneous anaphylaxis (PCA) in rats with the monitoring of antiallergic activity and the results of potentiation of hexobarbital-induced anesthesia in mice with the monitoring of central nervous depressive activity are summarized in Table 1. The following compound was used as the reference compound. Reference compound : Ketotifen-Fumarate
# Ascaris extract coupled with 2, 4-dinitrophenyl group (DNP-As) was prepared by the method of Koda et al. (Folia pharmacol. japon., 78, 319-334, 1981) and anti-DNP-As containing IgE antibody serum was prepared by the method of Tada and Okumura (J. Immunol., 106, 1019-1025, 1971). The PCA titer of the antiserum was estimated to be 1:128 by 48 hr PCA in rats.
# Male Wistar rats weighing 160 to 200 g were sensitized passively by intradermal injection, in the back, of 0.05 ml of anti-DNP-As serum diluted 21-fold with saline. After 48 hr, the animals (18-20 hr fasted) were given iv. 0.5 ml of 1% Evans blue solution containing 1 mg of DNP-As. After an additional 30 min, the animals were killed by stunning and the skins were removed. The intensity of the response was evaluated by assaying the amount of dye leaked according to the method of Katayama et al. (Microbiol. Immunol., 22, 89-101, 1978). The percent inhibition of PCA was calculated using the following formula: [formula]
# Test compounds were given orally in a dose of 1 mg/kg 1 hr prior to challenge with antigen. As a control, 5 ml/kg of vehicle (0.5 % CMC) alone were given in a similar manner.
# [2] = system: hexobarbital-induced anesthesia in mice; design: species or system male ddY mice; details: mouse, in vivo
# Text: as §1
# The loss of righting reflex induced by hexobarbital was used as an index of anesthesia. Groups of eight male ddY mice (20-24 hr fasted) weighing 19 to 27 g were treated orally with the test compounds (30 mg/kg) or vehicle. Thirty min later, 80 mg/kg of hexobarbital sodium were injected i.p. to the animals and the duration of loss of righting reflex was observed.
# [3] = 1 mg/kg, p.o., 1 hr prior to challenge with antigen, amount of dye leaked
Structure (SMILES),"inhibition in vivo at 1 mg/kg [1, 3]",the percent increase of hexobarbital-induced anesthesia in mice [2],inhibition in vivo at 1 mg/kg [1]
"Cl.O=C(O)CCN1CCC(=C2c3ccccc3CC(=O)c3sccc32)CC1 [Example 5, 4-(4,9-Dihydro-10-oxo-10H-benzo[4,5]cyclohepta[1,2-b]thiophen-4-ylidene)-1-piperidinepropionic Acid Hydrochloride]",75%,24%,–
"Cl.O=C(O)CCCN1CCC(=C2c3ccccc3CC(=O)c3sccc32)CC1 [Example 6, 4-(4,9-Dihydro-10-oxo-10H-benzo[4,5]cyclohepta[1,2-b]thiophen-4-ylidene)-1-piperidinebutyric Acid Hydrochloride]",77%,26%,–
"Cl.O=C(O)CCCCN1CCC(=C2c3ccccc3CC(=O)c3sccc32)CC1 [Example 8, 4-(4,9-Dihydro-10-oxo-10H-benzo[4,5]cyclohepta[1,2-b]thiophen-4-ylidene)-1-piperidinevaleric Acid Hydrochloride]",71%,27%,–
"O=C(O)CCN1CCC(=C2c3ccccc3CSc3ccccc32)CC1 [Example 10, 4-(Dibenzo[b,e]thiepin-11(6H)-ylidene)-1-piperidinepropionic Acid Hydrochloride]",69%,19%,–
"O=C(O)CCCN1CCC(=C2c3ccccc3CSc3ccccc32)CC1 [Example 13, 4-(Dibenzo[b,e]thiepin-11(6H)-ylidene)-1-piperidinebutyric Acid Hydrochloride]",58%,30%,–
"Cl.O=C(O)CCCCN1CCC(=C2c3ccccc3CSc3ccccc32)CC1 [Example 14, 4-(Dibenzo[b,e]thiepin-11(6H)-ylidene)-1-piperidinevaleric Acid Hydrochloride]",63%,19%,–
"Cl.O=C(O)CCCCCN1CCC(=C2c3ccccc3CSc3ccccc32)CC1 [Example 15, 4-(Dibenzo[b,e]thiepin-11(6H)-ylidene)-1-piperidinecaproic Acid Hydrochloride]",57%,33%,–
"O=C(O)CCN1CCC(=C2c3ccccc3Sc3ccccc32)CC1 [Example 18, 4-(9H-Thioxanthen-9-ylidene)-1-piperidinepropionic Acid]",96%,49%,–
"CN1CCC(=C2c3ccccc3CC(=O)c3sccc32)CC1 [Reference compound, 4,9-dihydro-4-(1-methyl-4-piperidinylidene)-10H-benzo[4,5]cyclohepta[1,2-b]thiophen-10-one, reference compound]",–,90%,56%
